The values below are quoted from earlier work in patent US6436936B1, “Methods and compositions for treating disorders, using optically pure (+) zopiclone” (Sepracor Inc., priority 1991, dated 2002).

The structures appear in SMILES notation.

The subject of the series is mice. As to conditions: reference agents, 3 per group, ten parameters scored, total score <40 of 60 denotes behavioral depression.
For `CN1C(=O)CN=C(c2ccccc2)c2cc(Cl)ccc21` [diazepam], the ED100 is 50 mg/kg. As to `CCC1(c2ccccc2)CCC(=O)NC1=O` (stereo not drawn) [glutethimide], the ED100 is 300 mg/kg. As for `O=C(CCCN1CCC(O)(c2ccc(Cl)cc2)CC1)c1ccc(F)cc1` [haloperidol], the ED100 is on record as 10 mg/kg. Take `CCCC(C)(COC(N)=O)COC(N)=O` [meprobamate]: the ED100 is listed as 300 mg/kg. Regarding `CCCC(C)C1(CC)C(=O)NC(=O)NC1=O` (stereo not drawn) [pentobarbital], the ED100 was 100 mg/kg. On to `COC(=O)[C@H]1[C@H]2C[C@@H]3c4[nH]c5cc(OC)ccc5c4CCN3C[C@H]2C[C@@H](OC(=O)c2cc(OC)c(OC)c(OC)c2)[C@@H]1OC` [reserpine], for which the ED100 is reported as 50 mg/kg.
